In US8916575B2, “Quinazoline derivatives for the treatment of viral infections and further diseases” (Janssen R&D Ireland, priority 2011, dated 2014):

What follows are compounds tested against T1, human TLR8 (Homo sapiens, UniProt Q9NR97) (assay: TLR8 wild type NFκB-luc cellular reporter assay). Settings: HEK293 NFκB-luc reporter, 6 hours incubation; second part of table.
T1 construct: expressed in transfected cells; host or cells: HEK293
T1 sequence (Q9NR97 27-1041): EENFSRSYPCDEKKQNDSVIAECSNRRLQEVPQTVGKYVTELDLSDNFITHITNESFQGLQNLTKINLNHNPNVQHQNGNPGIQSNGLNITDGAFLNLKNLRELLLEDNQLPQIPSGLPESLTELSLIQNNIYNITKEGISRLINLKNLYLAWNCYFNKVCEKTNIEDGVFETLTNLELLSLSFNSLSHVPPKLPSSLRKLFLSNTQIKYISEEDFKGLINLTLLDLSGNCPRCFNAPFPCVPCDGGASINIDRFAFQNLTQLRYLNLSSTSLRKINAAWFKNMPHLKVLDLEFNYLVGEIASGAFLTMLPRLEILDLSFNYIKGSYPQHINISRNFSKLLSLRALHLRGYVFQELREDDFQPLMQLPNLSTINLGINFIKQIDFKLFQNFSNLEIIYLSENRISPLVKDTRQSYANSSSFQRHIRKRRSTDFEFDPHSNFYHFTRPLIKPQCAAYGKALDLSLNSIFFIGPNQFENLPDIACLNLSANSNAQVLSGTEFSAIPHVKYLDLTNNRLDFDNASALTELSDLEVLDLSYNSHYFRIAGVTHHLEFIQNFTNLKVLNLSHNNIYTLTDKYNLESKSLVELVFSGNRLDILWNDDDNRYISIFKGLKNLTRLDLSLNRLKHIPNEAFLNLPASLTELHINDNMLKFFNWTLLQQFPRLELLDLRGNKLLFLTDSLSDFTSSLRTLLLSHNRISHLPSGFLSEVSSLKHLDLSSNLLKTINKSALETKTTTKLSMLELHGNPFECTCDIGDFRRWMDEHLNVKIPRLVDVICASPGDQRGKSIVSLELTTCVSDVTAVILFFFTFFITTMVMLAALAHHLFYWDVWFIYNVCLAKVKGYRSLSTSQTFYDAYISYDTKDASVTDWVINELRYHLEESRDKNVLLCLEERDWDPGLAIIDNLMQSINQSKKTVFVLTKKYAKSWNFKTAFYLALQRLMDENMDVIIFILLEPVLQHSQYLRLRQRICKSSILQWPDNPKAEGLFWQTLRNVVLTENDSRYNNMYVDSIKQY
Format: cell-based
Set-up: unit not given here
Experimental: The ability of compounds to activate human TLR7 and/or TLR8 was assessed in a cellular reporter assay using HEK293 cells transiently transfected with a TLR7 or TLR8 expression vector and NFκB-luc reporter construct. In one instance the TLR expression construct expresses the respective wild type sequence or a mutant sequence comprising a deletion in the second leucine-rich repeat of the TLR.
Briefly, HEK293 cells were grown in culture medium (DMEM supplemented with 10% FCS and 2 mM Glutamine). For transfection of cells in 10 cm dishes, cells were detached with Trypsin-EDTA, transfected with a mix of CMV-TLR7 or TLR8 plasmid (750 ng), NFκB-luc plasmid (375 ng) and a transfection reagent and incubated 24 hours at 37° C. in a humidified 5% CO2 atmosphere. Transfected cells were then detached with Trypsin-EDTA, washed in PBS and resuspended in medium to a density of 1.67×10^5 cells/mL. Thirty microliters of cells were then dispensed into each well in 384-well plates, where 10 μL of compound in 4% DMSO was already present. Following 6 hours incubation at 37° C., 5% CO2, the luciferase activity was determined by adding 15 μl of Steady Lite Plus substrate (Perkin Elmer) to each well and readout performed on a ViewLux ultraHTS microplate imager (Perkin Elmer). Dose response curves were generated from measurements performed in quadruplicates. Lowest effective concentrations (LEC) values, defined as the concentration that induces an effect which is at least two fold above the standard deviation of the assay, were determined for each compound.

| Compound | TLR8-wt (LEC) |
| --- | --- |
| CCC[C@@H](CO)Nc1nc(N)nc2c(F)cccc12 [Compound 47] | 0.03 |
| CCCC[C@@H](CO)Nc1nc(N)nc2c(F)cccc12 [Compound 59] | 0.04 |
| CCC[C@@H](CO)Nc1nc(N)nc2cccc(F)c12 [Compound 50] | 0.00 |
| CCC[C@@H](CO)Nc1nc(N)nc2c(C)cccc12 [Compound 43] | 0.12 |
| CCCC[C@@H](CO)Nc1nc(N)nc2cccc(C)c12 [Compound 52] | 0.03 |
| CCCCNc1nc(N)nc2cccc(OC)c12 [Compound 9] | 0.13 |
| CCCCNc1nc(N)nc2cc(OC)ccc12 [Compound 39] | 0.31 |
| CCC[C@@H](CO)Nc1nc(N)nc2ccc(OC)cc12 [Compound 57] | 0.53 |
| CCC[C@@H](CCO)Nc1nc(N)nc2cc(C)ccc12 [Compound 53] | 0.05 |
| CCCCNc1nc(N)nc2c(F)cccc12 [Compound 37] | 0.25 |
| CCCCNc1nc(N)nc2cc(CO)ccc12 [Compound 18] | 0.13 |
| CCC[C@@H](CO)Nc1nc(N)nc2cccc(OC)c12 [Compound 58] | 0.03 |
| CCCCNc1nc(N)nc2cccc(Cl)c12 [Compound 41] | 0.13 |
| CCCCNc1nc(N)nc2cccc(OCCOC)c12 [Compound 11] | 0.17 |
| CCC[C@@H](CCO)Nc1nc(N)nc2c(F)cccc12 [Compound 63] | 0.15 |
| CCCCNc1nc(N)nc2ccc(CO)cc12 [Compound 24] | 0.22 |
| CCC[C@@H](CO)Nc1nc(N)nc2ccc(F)cc12 [Compound 49] | 0.03 |
| CCC[C@@H](CCO)Nc1nc(N)nc2ccc(Oc3ccc(C(F)(F)F)cc3)cc12 [Compound 29] | >25 |
| CCCC[C@@H](CO)Nc1nc(N)nc2ccc(C)cc12 [Compound 51] | 0.04 |
| CCC[C@@H](CO)Nc1nc(N)nc2ccc(C)cc12 [Compound 45] | 0.03 |
| CCCC[C@@H](CO)Nc1nc(N)nc2ccc(F)cc12 [Compound 61] | 0.05 |
| CCC[C@@H](CCO)Nc1nc(N)nc2ccc(C)cc12 [Compound 54] | 0.43 |
| CCC[C@@H](CCO)Nc1nc(N)nc2ccc(F)cc12 [Compound 65] | 0.44 |
| CCC[C@@H](CCO)Nc1nc(N)nc2ccc(CC)cc12 [Compound 25] | 0.45 |

| Compound | TLR8-wt (LEC) |
| --- | --- |
| CCCCNc1nc(N)nc2cccc(C)c12 [Compound 36] | 0.26 |
| CCC[C@@H](CO)Nc1nc(N)nc2ccc(CO)cc12 [Compound 34] | 0.27 |
| CCC[C@@H](CCO)Nc1nc(N)nc2ccc(Oc3ccc(C(F)(F)F)cc3Cl)cc12 [Compound 27] | >25 |
| CCCCNc1nc(N)nc2cc(Cl)c3c(c12)OCCO3 [Compound 28] | 0.88 |
| CCC[C@@H](CO)Nc1nc(N)nc2cc(F)ccc12 [Compound 48] | 0.01 |
| CCCCCNc1nc(N)nc2ccc(Br)cc12 [Compound 13] | 0.30 |
| CCCCNc1nc(N)nc2cc(C(=O)OC)ccc12 [Compound 17] | 1.66 |
| CCC[C@@H](CO)Nc1nc(N)nc2cc(CO)ccc12 [Compound 33] | 0.15 |
| CCC[C@@H](CO)Nc1nc(N)nc2cccc(-c3ccccc3)c12 [Compound 10] | >25 |
| CCCCNc1nc(N)nc2cccc(OC(C)C)c12 [Compound 31] | 0.24 |
| CCCC[C@@H](CO)Nc1nc(N)nc2cc(F)ccc12 [Compound 60] | 0.01 |
| CCC[C@@H](CO)Nc1nc(N)nc2cc(C)ccc12 [Compound 44] | 0.03 |
| CCCCNc1nc(N)nc2ccc(Oc3ccc(C(F)(F)F)cc3Cl)cc12 [Compound 35] | >25 |
| CCCCNc1nc(N)nc2cc(F)c(F)cc12 [Compound 42] | 0.14 |
| CCC[C@@H](CCO)Nc1nc(N)nc2cc(F)ccc12 [Compound 64] | 0.03 |
| C#CCOc1cccc2nc(N)nc(NCCCC)c12 [Compound 30] | 0.10 |
| CCC[C@@H](CCO)Nc1nc(N)nc2ccc(C(C)C)cc12 [Compound 26] | 1.97 |
| CCCCNc1nc(N)nc2cccc(CCc3ccccc3)c12 [Compound 32] | 0.47 |
| CCCC[C@@H](CO)Nc1nc(N)nc2cccc(F)c12 [Compound 62] | 0.01 |
| CCC[C@@H](CO)Nc1nc(N)nc2cccc(C)c12 [Compound 46] | 0.04 |
| CCCCNc1nc(N)nc2ccc(-n3cnc(C)c3)cc12 [Compound 21] | 2.55 |
| CCCCNc1nc(N)nc2ccc(OC)cc12 [Compound 40] | 1.83 |
| CCC[C@@H](CO)Nc1nc(N)nc2cc(OC)ccc12 [Compound 56] | 0.04 |
| CCCCNc1nc(N)nc2ccc(F)cc12 [Compound 38] | 0.10 |

The next lines start with the values.

| TLR8-wt (LEC) | Compound |
| --- | --- |
| 0.04 | CCCC[C@@H](CO)Nc1nc(N)nc2cc(OC)ccc12 [Compound 76] |
| 0.01 | CCC[C@@H](CO)Nc1nc(N)nc2cccc(Cl)c12 [Compound 71] |
| 0.13 | CCC[C@@H](CCO)Nc1nc(N)nc2cc(OC)ccc12 [Compound 78] |
| 2.97 | CCC[C@@H](CCO)Nc1nc(N)nc2ccc(OC)cc12 [Compound 79] |
| 2.22 | CCCCNc1nc(N)nc2cc(OC)c(OCc3ccccc3)cc12 [Compound 89] |
| 0.16 | CCCC[C@@H](CCO)Nc1nc(N)nc2c(F)cccc12 [Compound 81] |
| 0.10 | CCCCNc1nc(N)nc2ccc(Br)cc12 [Compound 85] |
| 0.02 | CCC[C@@H](CO)Nc1nc(N)nc2cc(F)c(F)cc12 [Compound 72] |
| 0.62 | CCCC[C@@H](CO)Nc1nc(N)nc2ccc(OC)cc12 [Compound 77] |
| 0.02 | CCC[C@@H](CCO)Nc1nc(N)nc2cccc(F)c12 [Compound 66] |
| 0.03 | CCCC[C@@H](CCO)Nc1nc(N)nc2cc(F)ccc12 [Compound 82] |
| 0.33 | CC[C@H](C)[C@@H](CO)Nc1nc(N)nc2ccc(F)cc12 [Compound 68] |
| 0.06 | CCCC[C@@H](CCO)Nc1nc(N)nc2cc(C)ccc12 [Compound 73] |
| 4.10 | CC[C@H](C)[C@@H](CO)Nc1nc(N)nc2ccc(OC)cc12 [Compound 80] |
| 0.06 | CCCC[C@@H](CCO)Nc1nc(N)nc2cccc(C)c12 [Compound 75] |
| 0.10 | CCCC[C@@H](CCO)Nc1nc(N)nc2cccc(F)c12 [Compound 84] |
| 0.22 | CCC[C@@H](CO)Nc1nc(N)nc2cc(C(=O)OC)ccc12 [Compound 86] |
| 2.81 | CCCC[C@@H](CCO)Nc1nc(N)nc2ccc(OC)cc12 [Compound 88] |
| 0.38 | CCC[C@@H](CO)Nc1nc(N)nc2c(Cl)cccc12 [Compound 69] |
| 0.01 | CCC[C@@H](CO)Nc1nc(N)nc2cc(Cl)ccc12 [Compound 70] |
| 0.42 | CCCC[C@@H](CCO)Nc1nc(N)nc2ccc(F)cc12 [Compound 83] |
| 0.16 | CCCC[C@@H](CCO)Nc1nc(N)nc2cc(OC)ccc12 [Compound 87] |
| 0.25 | CCCC[C@@H](CCO)Nc1nc(N)nc2ccc(C)cc12 [Compound 74] |
